The text below walks through data of PubChem BioAssay AID248 (DTP/NCI, 2004).

Values joined by “and” are separate entries in the source; they are usually repeats but may differ in a detail not shown here. Identical values can stand only once. Inconclusive results and toxic doses are left out.

This assay has as its system L1210 leukemia ip in BDF1 mice, survival T/C. As to the kind of experiment: NCI In Vivo Anticancer Drug Screen. Data for tumor model L1210 Leukemia (intraperitoneal) in B6D2F1 (BDF1) mice. To be noted: endpoint: mean survival time, higher = longer survival. The method, boiled down:
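Value reflects the ratio of survival in compound-treated mice to survival in vehicle-treated controls, with both groups carrying the same transplanted tumor.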

[1] abbreviates: dose: 6.25 mg/kg/injection, schedule: Q01DX009 (ip), vehicle: Klucel (hydroxypropylcellulose) (HPC).
Setting [2] is: dose: 12.5 mg/kg/injection, schedule: Q01DX009 (ip), vehicle: Klucel (hydroxypropylcellulose) (HPC).
Setting [3] is: dose: 25.0 mg/kg/injection, schedule: Q01DX009 (ip), vehicle: Klucel (hydroxypropylcellulose) (HPC).
[4] abbreviates: dose: 100.0 mg/kg/injection, schedule: Q01DX009 (ip), vehicle: Klucel (hydroxypropylcellulose) (HPC).
[5] abbreviates: dose: 100.0 mg/kg/injection, schedule: Q01DX009 (ip), vehicle: saline with Tween-80.
Where [6] appears, read: dose: 400.0 mg/kg/injection, schedule: Q01DX009 (ip), vehicle: saline with Tween-80.
Setting [7] is: dose: 100.0 mg/kg/injection, schedule: Q04DX003 (ip), vehicle: Klucel (hydroxypropylcellulose) (HPC).
Setting [8] is: dose: 200.0 mg/kg/injection, schedule: Q04DX003 (ip), vehicle: Klucel (hydroxypropylcellulose) (HPC).
Setting [9] is: dose: 400.0 mg/kg/injection, schedule: Q04DX003 (ip), vehicle: Klucel (hydroxypropylcellulose) (HPC).
Where [10] appears, read: dose: 100.0 mg/kg/injection, schedule: Q01DX001 (ip), vehicle: carboxymethylcellulose (CMC).
Setting [11] is: dose: 200.0 mg/kg/injection, schedule: Q01DX001 (ip), vehicle: carboxymethylcellulose (CMC).
Where [12] appears, read: dose: 400.0 mg/kg/injection, schedule: Q01DX001 (ip), vehicle: carboxymethylcellulose (CMC).

With `C/C=C/c1ccccc1C(C)=O`, the T/C is, setting by setting: (dose: 100.0 mg/kg/injection, schedule: Q04DX003 (sc), vehicle: olive oil, sesame oil, peanut oil) 105 % of control; (dose: 200.0 mg/kg/injection, schedule: Q04DX003 (sc), vehicle: olive oil, sesame oil, peanut oil) 105 % of control; (dose: 400.0 mg/kg/injection, schedule: Q04DX003 (sc), vehicle: olive oil, sesame oil, peanut oil) 100 % of control.
In the case of `COc1cc(C(=O)NNC(=O)C(=O)NNC(=O)c2cc(OC)c(OC)c(OC)c2)cc(OC)c1OC`, the T/C under setting [1] is 95 % of control; the T/C under setting [2] is 96 % of control and 101 % of control; the T/C under setting [3] was 102 % of control; the T/C (dose: 50.0 mg/kg/injection, schedule: Q01DX009 (ip), vehicle: Klucel (hydroxypropylcellulose) (HPC)) is 92 % of control and 98 % of control and 101 % of control; the T/C under setting [4] was 86 % of control.
On to `C=C(Cl)CN(CCCC(=O)O)c1cccc(OC)c1`, for which the T/C was 89 % of control under setting [5]; 100 % of control (dose: 100.0 mg/kg/injection, schedule: Q04DX003 (ip), vehicle: other); 95 % of control (dose: 200.0 mg/kg/injection, schedule: Q01DX009 (ip), vehicle: saline with Tween-80); 98 % of control (dose: 200.0 mg/kg/injection, schedule: Q04DX003 (ip), vehicle: other); 97 % of control under setting [6]; 100 % of control (dose: 400.0 mg/kg/injection, schedule: Q04DX003 (ip), vehicle: other).
As for `OC1(c2ccccc2)c2ccccc2C(O)(c2ccccc2)c2c1ccc1ccccc21` (stereo not given), the T/C runs as follows: under setting [5], 93 % of control; under setting [6], 93 % of control.
As for `CC1=CC(=O)C2C(C)(O1)C1C(=O)C=C(C)OC21C` (stereo not given), the T/C is 93 % of control (dose: 100.0 mg/kg/injection, schedule: Q01DX001 (ip), vehicle: Klucel (hydroxypropylcellulose) (HPC)); 101 % of control under setting [7]; 101 % of control (dose: 200.0 mg/kg/injection, schedule: Q01DX001 (ip), vehicle: Klucel (hydroxypropylcellulose) (HPC)); 100 % of control under setting [8]; 104 % of control (dose: 400.0 mg/kg/injection, schedule: Q01DX001 (ip), vehicle: Klucel (hydroxypropylcellulose) (HPC)); 92 % of control under setting [9].
For the compound `CCOC(=O)c1cccc(N(CCOS(C)(=O)=O)CCOS(C)(=O)=O)c1`, the T/C is, setting by setting: (dose: 16.0 mg/kg/injection, schedule: Q01DX015 (ip), vehicle: saline) 110 % of control; (dose: 32.0 mg/kg/injection, schedule: Q01DX015 (ip), vehicle: saline) 118 % of control; (dose: 64.0 mg/kg/injection, schedule: Q01DX015 (ip), vehicle: saline) 111 % of control.
On to `c1ccc(-c2nc(-c3ccccc3)nc(-c3ccccc3)n2)cc1`, for which the T/C is, setting by setting: under setting [7], 98 % of control; under setting [8], 94 % of control; under setting [9], 94 % of control.
Consider `CC(=O)OCC(OC(C)=O)C(OC(C)=O)C(OC(C)=O)C(COC(C)=O)OC(C)=O` (stereo not given), for which the T/C (dose: 100.0 mg/kg/injection, schedule: Q04DX003 (ip), vehicle: saline with Tween-80) is 97 % of control; the T/C (dose: 200.0 mg/kg/injection, schedule: Q04DX003 (ip), vehicle: saline with Tween-80) is 93 % of control; the T/C (dose: 400.0 mg/kg/injection, schedule: Q04DX003 (ip), vehicle: saline with Tween-80) is 98 % of control.
`Cc1ccc(NC2=C(Cl)C(=O)c3ccccc3C2=O)cc1`: the T/C is, setting by setting: (dose: 50.0 mg/kg/injection, schedule: Q01DX001 (ip), vehicle: carboxymethylcellulose (CMC)) 101 % of control; under setting [10], 95 % of control; under setting [11], 93 % of control; under setting [12], 89 % of control.
As to `C1CCC(CC2CCNCC2)CC1`, the T/C was 105 % of control (dose: 12.5 mg/kg/injection, schedule: Q04DX003 (ip), vehicle: saline with Tween-80); 96 % of control (dose: 25.0 mg/kg/injection, schedule: Q04DX003 (ip), vehicle: saline with Tween-80); 102 % of control (dose: 50.0 mg/kg/injection, schedule: Q04DX003 (ip), vehicle: saline with Tween-80).
Turning to `CCC(=O)OC1(c2ccccc2)CCN(CCC(O)c2ccccc2)CC1` (stereo not given), the T/C (dose: 3.13 mg/kg/injection, schedule: Q01DX009 (ip), vehicle: Klucel (hydroxypropylcellulose) (HPC)) was 98 % of control; the T/C under setting [1] was 104 % of control; the T/C under setting [2] is 95 % of control; the T/C under setting [3] is 94 % of control.
Regarding `N#CCCCCCCCCC(=O)OCCC#N`, the T/C runs as follows: (dose: 100.0 mg/kg/injection, schedule: Q01DX001 (ip), vehicle: other) 95 % of control; (dose: 200.0 mg/kg/injection, schedule: Q01DX001 (ip), vehicle: other) 98 % of control; (dose: 400.0 mg/kg/injection, schedule: Q01DX001 (ip), vehicle: other) 97 % of control.
For the compound `CC(C)N(C)C(C1=CC(C)(C)c2ccccc2C1=O)c1ccccc1` (stereo not given), the T/C reads like this: under setting [7], 108 % of control; under setting [8], 101 % of control; under setting [9], 101 % of control.
On to `C[S+](C)C12CC3CC(CC(C3)C1)C2`, for which the T/C by setting is: (dose: 25.0 mg/kg/injection, schedule: Q01DX009 (ip), vehicle: saline) 108 % of control; (dose: 25.0 mg/kg/injection, schedule: Q04DX002 (ip), vehicle: saline) 102 % of control; (dose: 50.0 mg/kg/injection, schedule: Q01DX009 (ip), vehicle: saline) 94 % of control; (dose: 50.0 mg/kg/injection, schedule: Q04DX002 (ip), vehicle: saline) 102 % of control; (dose: 100.0 mg/kg/injection, schedule: Q01DX009 (ip), vehicle: saline) 86 % of control; (dose: 100.0 mg/kg/injection, schedule: Q04DX002 (ip), vehicle: saline) 94 % of control and 96 % of control.
On to `CCCCCCCCCCCCN=Cc1cc(Cl)ccc1O`, for which the T/C is 95 % of control (dose: 222.0 mg/kg/injection, schedule: Q01DX Z (ip), vehicle: methylcellulose (MC)); 102 % of control (dose: 333.0 mg/kg/injection, schedule: Q01DX Z (ip), vehicle: methylcellulose (MC)); 102 % of control (dose: 500.0 mg/kg/injection, schedule: Q01DX Z (ip), vehicle: methylcellulose (MC)).
In the case of `O=C(O)CCC(=O)Nc1ccc(F)cc1`, the T/C runs as follows: under setting [4], 103 % of control; (dose: 200.0 mg/kg/injection, schedule: Q01DX009 (ip), vehicle: Klucel (hydroxypropylcellulose) (HPC)) 93 % of control; (dose: 400.0 mg/kg/injection, schedule: Q01DX009 (ip), vehicle: Klucel (hydroxypropylcellulose) (HPC)) 93 % of control.
As for `CC(C)CCNCC(C)(C)OC(=O)c1ccc(N)cc1`, the T/C is 112 % of control (dose: 10.0 mg/kg/injection, schedule: Q01DX001 (ip), vehicle: saline); 100 % of control (dose: 20.0 mg/kg/injection, schedule: Q01DX001 (ip), vehicle: saline); 102 % of control (dose: 40.0 mg/kg/injection, schedule: Q01DX001 (ip), vehicle: saline).
Regarding `O=NN(CCCl)C(=O)Nc1ccc(SCC(=O)O)cc1`, the T/C was 117 % of control (dose: 5.0 mg/kg/injection, schedule: Q01DX001 (ip), vehicle: carboxymethylcellulose (CMC)); 161 % of control (dose: 18.0 mg/kg/injection, schedule: Q01DX001 (ip), vehicle: carboxymethylcellulose (CMC)); 175 % of control (dose: 26.0 mg/kg/injection, schedule: Q01DX001 (ip), vehicle: carboxymethylcellulose (CMC)).
Take `Nc1cc2c(cc1I)-c1ccccc1C2=O`: the T/C under setting [10] is 94 % of control, the T/C under setting [11] was 89 % of control and the T/C under setting [12] is 97 % of control.
Consider `N#CC1(C#N)OC12CCS(=O)(=O)c1ccccc12` (stereo not given), for which the T/C is 88 % of control (dose: 100.0 mg/kg/injection, schedule: Q01DX001 (ip), vehicle: saline); 95 % of control (dose: 200.0 mg/kg/injection, schedule: Q01DX001 (ip), vehicle: saline); 101 % of control (dose: 400.0 mg/kg/injection, schedule: Q01DX001 (ip), vehicle: saline).
With `CCC(C)COS(=O)(=O)c1ccc(C)cc1` (stereo not given), the T/C is 103 % of control (dose: 100.0 mg/kg/injection, schedule: Q04DX002 (ip), vehicle: saline with Tween-80); 103 % of control (dose: 200.0 mg/kg/injection, schedule: Q04DX002 (ip), vehicle: saline with Tween-80); 100 % of control (dose: 400.0 mg/kg/injection, schedule: Q04DX002 (ip), vehicle: saline with Tween-80).
